Reference: ChEMBL document CHEMBL1136426, “Synthesis and collateral dilator activity of nitroxyalkylamides having direct or latent sulfhydryl moieties” (2003)

Assays:
Canis familiaris [1] = assay: Maximum collateral index in anesthetized dog at the dose of 0.03 mg/kg, i.v.; type: functional, Canis lupus familiaris; details: route intravenous
Canis familiaris [2] = assay: Collateral index in anesthetized dog at the dose of 0.03 mg/kg, i.v. after 60 minutes of administration; type: functional, Canis lupus familiaris; details: route intravenous
Canis familiaris [3] = assay: Maximum […] was measured in anesthetized dog as percent at the dose of 0.03 mg/kg, i.v.; type: functional, Canis lupus familiaris; details: route intravenous
Canis familiaris [4] = organism: Canis familiaris; assay: Ratio of the CIAUC value to that of nitroglycerin (NTG ratio); type: functional, Canis lupus familiaris
Canis familiaris [5] = assay: Collateral index in anesthetized dog at the dose of 0.01 mg/kg, i.v. after 60 minutes of administration; type: functional, Canis lupus familiaris; details: route intravenous
Canis familiaris [6] = assay: Maximum […] was measured in anesthetized dog as percent at the dose of 0.01 mg/kg, i.v.; type: functional, Canis lupus familiaris; details: route intravenous
Canis familiaris [7] = assay: Maximum collateral index in anesthetized dog at the dose of 0.01 mg/kg, i.v.; type: functional, Canis lupus familiaris; details: route intravenous
[8] = Nitroglycerin ratio to that was measured; type: functional

SMILES	Max collateral index (Canis familiaris [1])	Collateral index (Canis familiaris [2])	Max hypotension (Canis familiaris [3])	NG ratio (Canis familiaris [4])	Collateral index (Canis familiaris [5])	Max hypotension (Canis familiaris [6])	Max collateral index (Canis familiaris [7])	NG ratio [8]
CCC[C@@H](CO[N+](=O)[O-])NC(=O)[C@@H]1CSC(=O)N1	18	17	-7%	1.3	–	–	–	–
CC(=O)N[C@@H](CSC(=O)OC(C)(C)C)C(=O)NCCO[N+](=O)[O-]	–	–	–	0.8	11	-8%	21	–
O=C1N[C@H](C(=O)NCCCCO[N+](=O)[O-])CS1	–	–	–	0	0	0%	2	–
O=C1NC(C(=O)NCCO[N+](=O)[O-])C(c2cccs2)S1 (centres undefined)	–	–	–	0.5	3	0%	8	–
CCCC[C@@H](CO[N+](=O)[O-])NC(=O)[C@@H]1CSC(=O)N1	21	17	-4%	1.6	–	–	–	–
O=C1NC(C(=O)NCCO[N+](=O)[O-])C(c2cccnc2)S1 (centres undefined)	–	–	–	–	0	-4%	2	0.1
CCOC(=O)SC[C@H](NC(C)=O)C(=O)NCCO[N+](=O)[O-]	–	–	–	2.4	16	-18%	39	–
O=C1NC(C(=O)NCCO[N+](=O)[O-])C(Cc2ccccc2)S1 (centres undefined)	–	–	–	1	7	-3%	12	–
C[C@H](CO[N+](=O)[O-])NC(=O)[C@H]1CSC(=O)N1	6	5	-3%	0.4	–	–	–	–
CC(=O)N[C@@H](CSC(=O)c1cccnc1)C(=O)NCCO[N+](=O)[O-]	–	–	–	1.1	9	-24%	20	–
O=C1NC(C(=O)NCCO[N+](=O)[O-])C(c2ccccc2)S1 (centres undefined)	18	9	-6%	1	–	–	–	–
CC(=O)N[C@@H](CSC(C)=O)C(=O)NCCO[N+](=O)[O-]	–	–	–	2	6	-44%	52	–
O=C1NC(C(=O)NCCO[N+](=O)[O-])C(c2ccco2)S1 (centres undefined)	6	3	-3%	0.4	–	–	–	–
C[C@@H](CO[N+](=O)[O-])NC(=O)[C@@H]1CSC(=O)N1	16	15	-5%	1.1	–	–	–	–
C[C@@H](CO[N+](=O)[O-])NC(=O)[C@H]1CSC(=O)N1	5	3	-1%	0.3	–	–	–	–
CC(=O)N[C@@H](CS)C(=O)NCCO[N+](=O)[O-]	–	–	–	1.9	9	-52%	39	–

SMILES	Max collateral index (Canis familiaris [1])	Collateral index (Canis familiaris [2])	Max hypotension (Canis familiaris [3])	NG ratio (Canis familiaris [4])	Collateral index (Canis familiaris [5])	Max hypotension (Canis familiaris [6])	Max collateral index (Canis familiaris [7])	NG ratio [8]
CC(=O)N[C@@H](CSC(=O)C(C)(C)C)C(=O)NCCO[N+](=O)[O-]	–	–	–	2.5	8	-23%	45	–
O=C1NC(C(=O)NCCO[N+](=O)[O-])C(c2cccc3ccccc23)S1 (centres undefined)	–	–	–	–	9	-2%	9	0.5
O=C(N[C@@H](CS)C(=O)NCCO[N+](=O)[O-])c1cccnc1	–	–	–	0	0	-3%	2	–
CC(C)C(=O)N[C@@H](CSC(=O)C(C)C)C(=O)NCCO[N+](=O)[O-]	–	–	–	1.5	9	-14%	25	–
C[C@@H]1SC(=O)N[C@@H]1C(=O)NCCO[N+](=O)[O-]	–	–	–	0.5	4	-2%	9	–
O=C1N[C@H](C(=O)NCCO[N+](=O)[O-])CS1	–	–	–	1.9	16	-8%	23	–
CC(=O)N[C@@H](CSC(=O)OCC(C)C)C(=O)NCCO[N+](=O)[O-]	–	–	–	1.3	6	-12%	25	–
O=C1N[C@@H](C(=O)NCCO[N+](=O)[O-])CS1	14	11	-8%	0.8	–	–	–	–
CC(=O)N[C@@H](CSC(=O)c1ccccc1)C(=O)NCCO[N+](=O)[O-]	–	–	–	2.1	5	-28%	49	–
O=C1N[C@H](C(=O)NCCCO[N+](=O)[O-])CS1	4	6	0%	0.1	–	–	–	–
CC1(C)SC(=O)N[C@@H]1C(=O)NCCO[N+](=O)[O-]	9	8	-2%	0.6	–	–	–	–
O=[N+]([O-])OCC(CO[N+](=O)[O-])O[N+](=O)[O-] [NITROGLYCERIN]	33	4	-55%	1	–	–	–	–
CC(CNC(=O)[C@@H]1CSC(=O)N1)O[N+](=O)[O-] (some centres undefined)	–	–	–	0	0	0%	0	–
CC[C@@H](CO[N+](=O)[O-])NC(=O)[C@@H]1CSC(=O)N1	7	7	-1%	0.5	–	–	–	–
C[C@H](CO[N+](=O)[O-])NC(=O)[C@@H]1CSC(=O)N1	12	12	-4%	0.9	–	–	–	–
